Columns and labels:
Jurkat [1] = test: confluency relative to DMSO, 18 h (ratio); higher = more viable
How it was run: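 Jurkat cells and primary CD4+/CD8+ T cells, naive or activated with CD3/CD28 Dynabeads for 48 h, were treated with compound (1 nM–10 µM, log10 steps) for 18 h at 37 °C. Following transfer of 100 µl into 96-well plates with IncuCyte Cytotox Dye and alamarBlue, wells were imaged at ×10, five images per well, each hour for 3 h. Confluency, obtained with the IncuCyte Basic Analyzer from phase-contrast images, is normalised to the mean of the control wells.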

Jurkat [2] = test: metabolic activity relative to DMSO, 18 h (ratio); higher = more viable
How it was run: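 Jurkat or primary CD4+/CD8+ T cells (naive, or activated 48 h with CD3/CD28 Dynabeads) were treated 18 h with compound at 1 nM–10 µM (log10 steps) at 37 °C, 5% CO2. Then 100 µl of suspension went into 96-well plates with alamarBlue (10% v/v final). After 3.5 h, fluorescence was read on a FluoStar Omega (excitation 544 nm, emission 584 nm). Metabolic activity is normalised to mean DMSO controls.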

Jurkat [3] = test: cytotoxicity relative to DMSO, 18 h (ratio); higher = less cell death (drugs called cytotoxic fall below 1)
How it was run: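 The assay used Jurkat cells or naive or CD3/CD28 Dynabead-activated (48 h) primary CD4+/CD8+ T cells, incubated with compound at 1 nM–10 µM in log10 steps for 18 h at 37 °C, 5% CO2. Cytotoxicity was assessed with IncuCyte Cytotox Dye and IncuCyte fluorescence imaging, corrected for confluency and scaled to mean control signals.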

SMILES	confluency (Jurkat [1]; 1 nM)	confluency (Jurkat [1]; 10 nM)	confluency (Jurkat [1]; 100 nM)	confluency (Jurkat [1]; 1000 nM)	confluency (Jurkat [1]; 10000 nM)	metabolic activity (Jurkat [2]; 1 nM)	metabolic activity (Jurkat [2]; 10 nM)	metabolic activity (Jurkat [2]; 100 nM)	metabolic activity (Jurkat [2]; 1000 nM)	metabolic activity (Jurkat [2]; 10000 nM)	cytotoxicity (Jurkat [3]; 1 nM)	cytotoxicity (Jurkat [3]; 10 nM)	cytotoxicity (Jurkat [3]; 100 nM)	cytotoxicity (Jurkat [3]; 1000 nM)	cytotoxicity (Jurkat [3]; 10000 nM)
O=C1NC(=O)C(=Cc2ccc3nccc(-c4ccncc4)c3c2)S1	0.989	0.988	0.968	0.812	1.01	0.992	0.956	0.964	0.723	0.426	0.944	0.984	0.956	0.762	0.804
O=C(O)c1ccc(CN2CCC(CNC3CC3c3ccccc3)CC2)cc1 (stereo not given)	0.954	0.956	0.996	0.987	0.993	1.09	1.06	1.09	1.08	1.02	1	1.04	1.1	1.04	1.03
CC(C)CC(=O)Nc1n[nH]c2c1CN(C(=O)C1CCN(C)CC1)C2(C)C	0.887	0.876	0.978	0.97	0.591	1.17	1.2	1.26	1.24	0.438	0.914	0.908	1.05	1.07	0.406
Cc1c(Cn2c(C)nc3c(C(=O)O)cc(N4CCOCC4)cc32)cccc1C(F)(F)F	0.923	0.973	1.05	1.03	0.998	0.862	0.891	1	1.25	1.08	0.881	0.947	1.05	1.14	1.01
COc1ccc(-c2cc3c(C)nc(N)nc3n(C3CCC(OCCO)CC3)c2=O)cn1 (stereo not given)	1.01	0.951	0.927	0.741	0.9	1.08	1.01	0.734	0.562	0.402	1.02	0.94	0.882	0.666	0.721
COc1ccc(Cn2ccc3ccc(C(=O)NO)cc32)cc1	1.01	1.01	1	1.01	1	1.03	0.992	1.02	1.01	1.02	0.955	0.926	0.954	1.04	0.938
COCCN1CCN(Cc2ccc(-c3n[nH]c4c3C(=O)c3c(NC(=O)NN5CCOCC5)cccc3-4)cc2)CC1.Cl.Cl	0.976	0.788	0.898	0.951	0.909	1.05	0.968	0.223	0.221	0.198	0.969	0.715	0.581	0.639	0.62
Cc1sc2c(c1C)C(c1ccc(Cl)cc1)=NC(CC(=O)OC(C)(C)C)c1nnc(C)n1-2 (single isomer, unassigned; (+)) [(+)-JQ-1]	1.02	0.962	1.02	1.01	1.02	1.05	0.989	1.13	1.1	0.987	1.09	0.985	1.22	1.07	0.995
Nc1ncn(C2OC(CO)C(O)C2O)c(=O)n1 (stereo not given) [5-Azacytidine]	0.777	0.792	0.976	0.919	0.961	1.05	1.03	1.03	0.994	0.344	0.896	0.89	1.12	1	1.12
O=c1[nH]cc(F)c(=O)[nH]1 [5-Fluorouracil]	1	0.981	0.992	0.978	0.996	1.03	0.913	0.967	0.999	0.971	0.997	0.931	0.995	0.946	0.985
O=C(NO)c1cnc(NC2(c3ccccc3)CC2)nc1 [ACY738]	1.01	0.994	1.03	0.995	0.999	0.936	0.962	1.1	0.862	0.713	0.969	0.95	1.15	1.05	0.982
Cc1csc(-c2nnc(Nc3ccc(Oc4ncccc4-c4ccnc(N)n4)cc3)c3ccccc23)c1 [AMG-900]	0.926	0.91	0.92	0.874	0.878	0.99	0.973	1.02	0.871	0.865	0.919	0.897	0.856	0.848	0.823

— the supplement of paper PMC11919725
